This test addresses T1, iNOS in human cartilage explants (Homo sapiens, UniProt P35228).
T1 construct: from tissue; host or cells: human cartilage explants stimulated with recombinant human IL-1β
As to the kind of experiment: Human cartilage explant assay (IL-1β-induced nitrite production). Format: cell-based. The note with it: inhibition of nitrite production, IL-1β-stimulated explants; averages across all experiments and all lots.

Structures can show the parent of a compound that is named as a salt.

For orientation: IC50 means the concentration needed to halve the response being measured. A higher IC50 goes with weaker potency in that assay.

Description: Human Cartilage Explant Assay
Cartilage was cut into small explants of approximately 15-45 mg in weight and one or two explants per well are placed into either 96 or 48 well culture plates with 200-500 μL of culture media per well. The culture media was either a custom modification of Minimum Essential Medium(Eagle) with Earle's salts (GibcoBRL) prepared without L-Arginine, without L-Glutamine and without phenol red or a custom modification of serumless Neuman and Tytell (GibcoBRL) medium prepared without L-arginine, without insulin, without ascorbic acid, without L-glutamine and without phenol red. Both are supplemented before use with 100 μM L-Arginine (Sigma), 2 mM L-glutamine, 1×HL-1 supplement (BioWhittaker), 50 mg/ml ascorbic acid (Sigma) and 150 pg/ml recombinant human IL-1β (RD Systems) to induce nitric oxide synthase. Compounds are then added in 10 μL aliquots and the explants incubated at 37° C. with 5% CO2 for 18-24 hours. The day old supernatant is then discarded and replaced with fresh culture media containing recombinant human IL-1β and compound and incubated for another 20-24 hours. This supernatant is analyzed for nitrite with a fluorometric assay (Misko et al, Anal. Biochem., 214, 11-16, 1993). […] IC50 values (Table 1) are determined from plotting the percent inhibition of nitrite production at six different concentrations of inhibitor.

In the case of `CC(=N)NCCSC[C@](C)(N)C(=O)O` [Example 1, S-[2-[(1-Iminoethyl)amino]ethyl]-2-methyl-L-cysteine, dihydrochloride], it took 700 nM to reach half-maximal inhibition (IC50).

For `CC(=N)NCCSCC(C)(N)C(=O)O` (stereo not drawn) [Example 16, S-[2-(1-Iminoethylamino)ethyl]-2-methyl-(D/L)-cysteine, bistrifluoroacetate], the IC50 is 700 nM.

These data come from patent US6914158B2, “Amidino compounds useful as nitric oxide synthase inhibitors” (Pharmacia Corporation, priority 2000, dated 2005).
